Assay results reported in US12331121B2, “Efflux pump-cancer antigen multi-specific antibodies and compositions, reagents, kits and methods related thereto” (William Robert Arathoon Living Trust Dated August 29, 2016, priority 2019, dated 2025).

Assays:
naïve 293T cells = assay: Enhanced cell killing (chemosensitization) of naïve 293T cells with chemotherapeutic titration; assay type: cell-based, human
Method: HEK 293T, MCF-7, N6ADR and SKNF7 cell lines expressing Pgp were obtained from the American Type Culture Collection. N6/ADR cells is also referred to as NALM6/ADR cells. All cell lines and lines derived from them were maintained in RPMI 1640 or DMEM supplemented with up to 10% fetal bovine serum (Sigma), nonessential amino acids, and 2 mmol/L L-glutamine at 37° C. and 5% CO2 in a humidified incubator (unless otherwise indicated). Cells were used as supplied or were modified to overexpress (Ox) Pgp or were subject to having Pgp expression knocked down (KD) with lentiviral-mediated short hairpin RNA or knock out (KO) of the functional CD47 gene by CRISPR/Cas-mediated knock out technology essentially as described (Cong, L. et al. (2013) Science 339, 819-823). For vincristine and paclitaxel IC50 determination, cells were plated in normal growth medium and allowed to adhere overnight. Paclitaxel or vincristine (Sigma) were added in a dilution series and any modulators were added within ranges of 0 to 500 μM/L. Cell viability was measured 72 h later using the Celltiter-Glo Luminescent Cell Viability Assay (Promega).
FIG. 8 provides comparisons of binding and enhanced cell killing by different bispecific antibodies (with various humanized or chimerized heavy or light chain combinations). […] Columns 5-8 (“Binding (293)”, “Binding (293 KO CD47)”, Binding (293 KO CD47, OX ABCB1)”, and “Binding (293 OX ABCB1)”) provide FACS mean fluorescence intensities of antibodies binding to the indicated cell lines compared with non-binding control antibodies: “−”=˜zero, “±”=0 to ˜0.5 Log shift, “+”=˜1 Log shift, “++”=1→2 Log shift (see FIG. 3A for examples of non-binding controls and binding antibodies).

MES-SA/Dx5 cells = assay: MES-SA/Dx5 subcutaneous tumors in nude mice; assay type: in vivo
Method: Cells: MES-SA/Dx5 cell line (Sigma, catalogue no 95051031) is a uterine sarcoma, derived from parent MES-SA cell line (Sigma, catalogue no 95051030), was used in this study.
Mice: 5-6-week-old female nude mice (Charles River) were used in this study.
(§1) All animal maintenance, handling, surveillance, and animal procedures were performed in accordance with and approval from the APLAC protocol.
MES-SA/Dx5 subcutaneous tumors: Once tumors reached 100-150 mm^3, mice were randomized into six groups of five mice each—(i) Control isotype IgG1 3 mg/kg, (ii) Control isotype IgG1 3 mg/kg and 20 mg/kg of paclitaxel, (iii) KNJYBisP1.1 3 mg/kg, (iv) KNJYBisP1.1 3 mg/kg and 20 mg/kg of paclitaxel, (v) KNJYBisP1.1 LALAPG 3 mg/kg and (vi) KNJYBisP1.1 LALAPG 3 mg/kg and 20 mg/kg of paclitaxel. Antibody and paclitaxel were dosed intraperitoneally twice a week for two consecutive weeks. […]

A2780ADR cells = assay: A2780ADR subcutaneous tumors in mice; assay type: in vivo
Method: A2780ADR MDR cancer cell line and HeyT30 MDR cancer cell line were injected into mice according to protocols described in Example 3. Mice were treated with BisP1.1 bispecific antibody with or without paclitaxel.
Cells: A2780ADR cell line (Sigma, catalogue no 93112520) is an epithelial ovarian carcinoma, derived from parent A2780 cell line (Sigma, catalogue no 93112519), was used in this study.
Mice: 5-6-weeks-old female nude mice (Charles River) were used in this study.
as §1
A2780ADR subcutaneous tumors: Mice were randomized into six groups of five mice each—(i) Control isotype IgG1 3 mg/kg, (ii) Control isotype IgG1 3 mg/kg and 20 mg/kg of paclitaxel, (iii) KNJYBisP1.1 3 mg/kg, (iv) KNJYBisP1.1 3 mg/kg and 20 mg/kg of paclitaxel, (v) KNJYBisP1.1 N297A 3 mg/kg and (vi) KNJYBisP1.1 N297A 3 mg/kg and 20 mg/kg of paclitaxel. Antibody and paclitaxel were dosed intraperitoneally twice a week for two consecutive weeks.
A2780ADR subcutaneous tumors: Once tumors reached 100-150 mm^3, mice were randomized into ten groups of five mice each—(i) Control isotype IgG1 3 mg/kg, (ii) Control isotype IgG1 3 mg/kg and 20 mg/kg of paclitaxel, (iii) KNJYBisP1.1 3 mg/kg, (iv) KNJYBisP1.1 3 mg/kg and 20 mg/kg of paclitaxel, (v) 15D3 hybridoma monoclonal Ab 3 mg/kg, (vi) 15D3 hybridoma 3 mg/kg and 20 mg/kg of paclitaxel, (vii) KT14/KT14 monoclonal Ab 3 mg/kg, (viii) KT14/KT14 monoclonal Ab 3 mg/kg and 20 mg/kg of paclitaxel, (ix) 15D3 hybridoma+KT14/KT14, 1.5 mg each and (x) 15D3 hybridoma+KT14/KT14, 1.5 mg each and 20 mg/kg of paclitaxel. Antibodies and paclitaxel were dosed intraperitoneally twice a week for two consecutive weeks.

[1] = antibody 3 mg/kg, paclitaxel 20 mg/kg

KBisP1.1: bispecific anti-MDR1/anti-CD47 antibody: 15D3 heavy chain, 5F9 (KT14) heavy chain, common MRK16 light chain, human IgG1
sensitivity of naïve 293T cells to paclitaxel (naïve 293T cells; FIG. 5, 6, compared to chemo only): enhanced
in vitro killing of naïve 293T with vincristine (naïve 293T cells; antibody 25 nM, compared to vincristine alone, FIG. 7): enhanced in vitro killing
Killing: enhanced 293 naïve cell-killing (sensitization) (naïve 293T cells; paclitaxel titration, FIG. 8): ++ (≥2 Log shift)
chemosensitizing effect compared with monospecific antibodies (MES-SA/Dx5 cells; 3 mg/kg with paclitaxel 20 mg/kg, FIG. 29): stronger than either the 15D3 hybridoma or KT14 monoclonal antibodies
chemosensitization of MES-SA/Dx5 tumors to paclitaxel (MES-SA/Dx5 cells; [1]): chemosensitizes
chemosensitizing effect compared with monospecific antibodies (A2780ADR cells; 3 mg/kg with paclitaxel 20 mg/kg, FIG. 28): stronger compared to either the anti-MDR1 15D3 hybridoma antibody or anti-CD47 KT14 monoclonal antibody
tumor volume (A2780ADR cells; Example 4, with or without paclitaxel, FIG. 18): efficacious in reducing A2780ADR MDR cancer cell tumor volume with or without paclitaxel
chemosensitization of A2780ADR tumors to paclitaxel (A2780ADR cells; [1]): chemosensitizes
